We go through 18 compounds from PubChem BioAssay AID248 (DTP/NCI, 2004).

This test concerns L1210 leukemia ip in BDF1 mice, survival T/C. The test is described as follows: NCI In Vivo Anticancer Drug Screen. Data for tumor model L1210 Leukemia (intraperitoneal) in B6D2F1 (BDF1) mice. As to conditions: endpoint: mean survival time, higher = longer survival. The essentials:
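Survival endpoint. Drug-treated group vs vehicle group, expressed as T divided by C. Tumor passaged by transplantation.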

[1] abbreviates: dose: 100.0 mg/kg/injection, schedule: Q01DX001 (ip), vehicle: saline.
The mark [2] stands for this setting: dose: 200.0 mg/kg/injection, schedule: Q01DX001 (ip), vehicle: saline.
Where [3] appears, read: dose: 400.0 mg/kg/injection, schedule: Q01DX001 (ip), vehicle: saline.
[4] abbreviates: dose: 100.0 mg/kg/injection, schedule: Q01DX009 (ip), vehicle: saline with Tween-80.
Where [5] appears, read: dose: 200.0 mg/kg/injection, schedule: Q01DX009 (ip), vehicle: saline with Tween-80.
The mark [6] stands for this setting: dose: 100.0 mg/kg/injection, schedule: Q04DX003 (ip), vehicle: saline with Tween-80.
The mark [7] stands for this setting: dose: 200.0 mg/kg/injection, schedule: Q04DX003 (ip), vehicle: saline with Tween-80.
Where [8] appears, read: dose: 400.0 mg/kg/injection, schedule: Q04DX003 (ip), vehicle: saline with Tween-80.
[9] abbreviates: dose: 100.0 mg/kg/injection, schedule: Q04DX003 (ip), vehicle: Klucel (hydroxypropylcellulose) (HPC).
Where [10] appears, read: dose: 200.0 mg/kg/injection, schedule: Q04DX003 (ip), vehicle: Klucel (hydroxypropylcellulose) (HPC).
The mark [11] stands for this setting: dose: 400.0 mg/kg/injection, schedule: Q04DX003 (ip), vehicle: Klucel (hydroxypropylcellulose) (HPC).
Setting [12] is: dose: 100.0 mg/kg/injection, schedule: Q01DX009 (ip), vehicle: Klucel (hydroxypropylcellulose) (HPC).
Setting [13] is: dose: 200.0 mg/kg/injection, schedule: Q01DX009 (ip), vehicle: Klucel (hydroxypropylcellulose) (HPC).
Where [14] appears, read: dose: 200.0 mg/kg/injection, schedule: Q04DX003 (ip), vehicle: saline.
The mark [15] stands for this setting: dose: 100.0 mg/kg/injection, schedule: Q01DX001 (ip), vehicle: other.
[16] abbreviates: dose: 200.0 mg/kg/injection, schedule: Q01DX001 (ip), vehicle: other.
[17] abbreviates: dose: 400.0 mg/kg/injection, schedule: Q01DX001 (ip), vehicle: other.
Where [18] appears, read: dose: 400.0 mg/kg/injection, schedule: Q01DX009 (ip), vehicle: Klucel (hydroxypropylcellulose) (HPC).

Values joined by “and” are separate entries in the source; they are usually repeats but may differ in a detail not shown here. Equal values may be shown once. Inconclusive results and toxic doses are left out.

Consider `CC(C)C1=NNC(=O)C1(C)C`, for which the T/C reads like this: under setting [1], 105 % of control; under setting [2], 108 % of control; under setting [3], 108 % of control.

`O=C(O)c1cc(Cl)c(O)c(Cl)c1`: the T/C under setting [4] was 107 % of control; the T/C under setting [5] is 91 % of control; the T/C (dose: 400.0 mg/kg/injection, schedule: Q01DX009 (ip), vehicle: saline with Tween-80) is 101 % of control.

In the case of `O=C(O)CC(NC(=O)OCc1ccccc1)c1ccccc1` (stereo unspecified), the T/C (dose: 100.0 mg/kg/injection, schedule: Q01DX001 (ip), vehicle: saline with Tween-80) is 92 % of control; the T/C under setting [4] is 93 % of control and 102 % of control; the T/C (dose: 100.0 mg/kg/injection, schedule: Q04DX002 (ip), vehicle: saline with Tween-80) is 110 % of control; the T/C under setting [6] was 97 % of control; the T/C (dose: 200.0 mg/kg/injection, schedule: Q01DX001 (ip), vehicle: saline with Tween-80) was 90 % of control; the T/C under setting [5] is 98 % of control and 91 % of control. For the same compound, the T/C reads like this: (dose: 200.0 mg/kg/injection, schedule: Q04DX002 (ip), vehicle: saline with Tween-80) 95 % of control; under setting [7], 92 % of control; (dose: 400.0 mg/kg/injection, schedule: Q01DX001 (ip), vehicle: saline with Tween-80) 92 % of control; (dose: 400.0 mg/kg/injection, schedule: Q04DX002 (ip), vehicle: saline with Tween-80) 100 % of control; under setting [8], 93 % of control.

Regarding `O=C(Cl)C(c1ccccc1)c1ccccc1`, the T/C reads like this: under setting [9], 108 % of control; under setting [10], 98 % of control; under setting [11], 96 % of control.

For the compound `CCNP(=O)(CCl)NC12CC3CC(CC(C3)C1)C2` (stereo unspecified), the T/C is, setting by setting: (dose: 50.0 mg/kg/injection, schedule: Q01DX009 (ip), vehicle: Klucel (hydroxypropylcellulose) (HPC)) 91 % of control; under setting [12], 93 % of control; under setting [13], 93 % of control.

As for `O=C(Nc1ccc(NC(=O)Nc2ccc(C3=NCCCN3)cc2)cc1)Nc1ccc(C2=NCCCN2)cc1`, the T/C (dose: 8.3 mg/kg/injection, schedule: Q04DX003 (ip), vehicle: saline with Tween-80) was 107 % of control; the T/C (dose: 12.0 mg/kg/injection, schedule: Q04DX003 (ip), vehicle: saline with Tween-80) is 121 % of control; the T/C under setting [1] is 124 % of control; the T/C under setting [14] is 159 % of control; the T/C (dose: 264.0 mg/kg/injection, schedule: Q01DX001 (ip), vehicle: saline) is 208 % of control; the T/C (dose: 400.0 mg/kg/injection, schedule: Q04DX003 (ip), vehicle: saline) was 279 % of control.

For `COC(=O)C(NC(=O)OCc1ccccc1)C(=O)OC`, the T/C is 100 % of control under setting [6], 100 % of control under setting [7] and 98 % of control under setting [8].

`C/C(=N\N(Cc1ccc(CN(/N=C(\C)c2ccccc2)c2ccccc2)cc1)c1ccccc1)c1ccccc1`: the T/C is 86 % of control under setting [15], 89 % of control under setting [16] and 89 % of control under setting [17].

As for `Cc1cccc(C)c1NC(=O)c1cccc(C(=O)Nc2c(C)cccc2C)c1`, the T/C was 98 % of control under setting [12]; 96 % of control under setting [9]; 111 % of control under setting [13]; 87 % of control under setting [10]; 105 % of control under setting [18]; 86 % of control under setting [11].

Take `O=C1OC(=O)C(=C(c2ccccc2)c2ccccc2)C1=C(c1ccccc1)c1ccccc1`: the T/C under setting [12] is 101 % of control, the T/C under setting [13] was 92 % of control and the T/C under setting [18] was 92 % of control.

In the case of `CC(=O)Nc1ccc(CCCCc2c(C)nc(NC(C)=O)[nH]c2=O)cc1`, the T/C is, setting by setting: (dose: 100.0 mg/kg/injection, schedule: Q01DX001 (ip), vehicle: Klucel (hydroxypropylcellulose) (HPC)) 91 % of control; (dose: 200.0 mg/kg/injection, schedule: Q01DX001 (ip), vehicle: Klucel (hydroxypropylcellulose) (HPC)) 89 % of control.

For the compound `O=C1NC2CCCCCCC12` (stereo unspecified), the T/C is 119 % of control (dose: 100.0 mg/kg/injection, schedule: Q04DX002 (ip), vehicle: saline + alcohol); 105 % of control (dose: 200.0 mg/kg/injection, schedule: Q04DX002 (ip), vehicle: saline + alcohol); 105 % of control (dose: 400.0 mg/kg/injection, schedule: Q04DX002 (ip), vehicle: saline + alcohol).

In the case of `CCCCCCC(C)OC(=O)CCl` (stereo unspecified), the T/C by setting is: under setting [6], 102 % of control; under setting [7], 104 % of control; under setting [8], 109 % of control.

With `O=C(CCCBr)Nc1ccc2ccccc2c1`, the T/C reads like this: (dose: 50.0 mg/kg/injection, schedule: Q01DX009 (ip), vehicle: saline with Tween-80) 98 % of control; under setting [4], 95 % of control; under setting [5], 95 % of control.

Turning to `CCCCCCC(=O)NC1=C(N2CC2)C(=O)C(NC(=O)CCCCCC)=C(N2CC2)C1=O`, the T/C by setting is: (dose: 25.0 mg/kg/injection, schedule: Q01DX009 (ip), vehicle: saline) 110 % of control; (dose: 45.0 mg/kg/injection, schedule: Q01DX009 (ip), vehicle: other) 124 % of control; (dose: 50.0 mg/kg/injection, schedule: Q01DX009 (ip), vehicle: saline) 122 % of control; (dose: 51.0 mg/kg/injection, schedule: Q01DX Z (ip), vehicle: carboxymethylcellulose (CMC)) 124 % of control; (dose: 51.0 mg/kg/injection, schedule: Q01DX Z (ip), vehicle: methylcellulose (MC)) 107 % of control; (dose: 65.0 mg/kg/injection, schedule: Q01DX009 (ip), vehicle: other) 118 % of control. Further, the T/C was 113 % of control (dose: 66.0 mg/kg/injection, schedule: Q01DX009 (ip), vehicle: Klucel (hydroxypropylcellulose) (HPC)); 96 % of control (dose: 76.0 mg/kg/injection, schedule: Q01DX Z (ip), vehicle: methylcellulose (MC)); 96 % of control under setting [15]; 101 % of control under setting [12]; 123 % of control (dose: 100.0 mg/kg/injection, schedule: Q01DX009 (ip), vehicle: saline); 111 % of control under setting [9]. Also, the T/C runs as follows: (dose: 100.0 mg/kg/injection, schedule: Q04DX003 (ip), vehicle: saline) 103 % of control; (dose: 115.0 mg/kg/injection, schedule: Q01DX Z (ip), vehicle: carboxymethylcellulose (CMC)) 120 % of control; (dose: 150.0 mg/kg/injection, schedule: Q01DX009 (ip), vehicle: Klucel (hydroxypropylcellulose) (HPC)) 97 % of control and 99 % of control; (dose: 172.5 mg/kg/injection, schedule: Q01DX Z (ip), vehicle: carboxymethylcellulose (CMC)) 114 % of control; under setting [16], 108 % of control; (dose: 200.0 mg/kg/injection, schedule: Q01DX009 (ip), vehicle: other) 100 % of control. Also, the T/C is 94 % of control (dose: 200.0 mg/kg/injection, schedule: Q01DX009 (ip), vehicle: saline); 113 % of control under setting [14]; 114 % of control (dose: 264.0 mg/kg/injection, schedule: Q04DX003 (ip), vehicle: Klucel (hydroxypropylcellulose) (HPC)); 111 % of control (dose: 264.0 mg/kg/injection, schedule: Q04DX003 (ip), vehicle: other); 110 % of control under setting [17]; 118 % of control under setting [11].

On to `CCSC(C)(C)C(C)(C#N)NNC(C)(C#N)C(C)(C)SCC` (stereo unspecified), for which the T/C was 101 % of control under setting [1], 95 % of control under setting [2] and 93 % of control under setting [3].

As to `NCCSC(C[N+](=O)[O-])c1ccc2c(c1)OCO2` (stereo unspecified), the T/C under setting [6] was 93 % of control and the T/C under setting [7] was 98 % of control.

As for `CC1=CC2=C(C(=O)C1=O)C(C)CCC2C(C)C` (stereo unspecified), the T/C is, setting by setting: under setting [1], 98 % of control; under setting [2], 94 % of control.
